In patent US11795163B2, “Compound for inhibiting nicotinamide phosphoribosyltransferase and composition containing same” (CHECKMATE THERAPEUTICS INC., priority 2016, dated 2023):

Tests used:
H322 = experiment: Therapeutic effect of cancer cell line, IC50; type: cell-based; conditions: NCI-H322; H322, NAPRT expression negative
H661 = experiment: Therapeutic effect of cancer cell line, IC50; type: cell-based; conditions: Homo sapiens, NCI-H661; H661, NAPRT expression negative
H1115 = experiment: Therapeutic effect of cancer cell line, IC50; type: cell-based; conditions: H1115, NAPRT expression negative
[1] = Microsome stability evaluation; type: in vitro ADME, human; conditions: after 30 minutes, 1 μM compound, 0.3 mg/ml microsomal protein, 1 mM NADPH
Protocol: (§1) Metabolic stability was assessed using human liver microsomes and mouse liver microsomes. Specifically, pooled male mouse liver microsomes (in-house preparation per SOP), pooled human liver microsomes (XENOTECH; […] The reaction was stopped by addition of acetonitrile ([…]) containing the same volume of internal standard. The precipitated proteins were removed by centrifugation and the supernatant was analyzed by LC/MS-MS method. […] Residual % parent compound=(peak area at time x/peak area at TO)×100.

[2] = Microsome stability evaluation; type: in vitro ADME, mouse; conditions: after 30 minutes, 1 μM compound, 0.3 mg/ml microsomal protein, 1 mM NADPH
Protocol: as §1

hERG channel = hERG channel (Homo sapiens, UniProt Q12809); experiment: hERG screening by fluorescence polarization with red fluorescent hERG channel ligand tracer; type: binding; conditions: probe high affinity red fluorescent hERG channel ligand tracer, mean±standard deviation, read-out: % inhibition capacity
hERG K+ channel = hERG K+ channel (Homo sapiens, UniProt Q12809); experiment: hERG K+ channel activity evaluation, patch clamp
Protocol: In addition, as the hERG K+ channel activity evaluation, the potential risk of log QT prolongation according to the dose used was evaluated by measuring the current inhibition according to the drug using a patch clamp technique and evaluating the IC50.

H1993 = experiment: Therapeutic effect of cancer cell line, IC50; type: cell-based; conditions: Homo sapiens, NCI-H1993; H1993, NAPRT expression positive
H2122 = experiment: Therapeutic effect of cancer cell line, IC50; type: cell-based; conditions: Homo sapiens, NCI-H2122; H2122, NAPRT expression positive
HBEC30 = experiment: Therapeutic effect of cancer cell line, IC50; type: cell-based; conditions: HBEC30, NAPRT expression positive
H1299 = experiment: Therapeutic effect of cancer cell line, IC50; type: cell-based; conditions: Homo sapiens, NCI-H1299; H1299, NAPRT expression positive
H1975 = experiment: Therapeutic effect of cancer cell line, IC50; type: cell-based; conditions: Homo sapiens, NCI-H1975; H1975, NAPRT expression positive
H2030 = experiment: Therapeutic effect of cancer cell line, IC50; type: cell-based; conditions: Homo sapiens, NCI-H2030; H2030, NAPRT expression positive
liver cell (THLE-2) = experiment: Toxicity assessment in normal cell line, cell viability; type: cell-based; conditions: THLE-2, very high concentrations of 50 μM
liver cell (THLE-3) = experiment: Toxicity evaluation in normal cell line, cell viability; type: cell-based; conditions: THLE-3, very high concentrations of 50 μM
H322 cell line = experiment: Toxic mechanism in cancer cell lines: intracellular NAD, ATP and total protein; type: cell-based; conditions: H322, 2.5 μM
Protocol: To investigate the direct effect of the compound according to the present invention on the catalytic activity of NamPT enzyme, after treating H322 cell line with 2.5 μM of the compound of the Synthesis Example 4, the intracellular NAD, ATP and total protein was measured, with the results depicted in FIG. 20.

Chain of hERG K+ channel (Q12809 whole entry): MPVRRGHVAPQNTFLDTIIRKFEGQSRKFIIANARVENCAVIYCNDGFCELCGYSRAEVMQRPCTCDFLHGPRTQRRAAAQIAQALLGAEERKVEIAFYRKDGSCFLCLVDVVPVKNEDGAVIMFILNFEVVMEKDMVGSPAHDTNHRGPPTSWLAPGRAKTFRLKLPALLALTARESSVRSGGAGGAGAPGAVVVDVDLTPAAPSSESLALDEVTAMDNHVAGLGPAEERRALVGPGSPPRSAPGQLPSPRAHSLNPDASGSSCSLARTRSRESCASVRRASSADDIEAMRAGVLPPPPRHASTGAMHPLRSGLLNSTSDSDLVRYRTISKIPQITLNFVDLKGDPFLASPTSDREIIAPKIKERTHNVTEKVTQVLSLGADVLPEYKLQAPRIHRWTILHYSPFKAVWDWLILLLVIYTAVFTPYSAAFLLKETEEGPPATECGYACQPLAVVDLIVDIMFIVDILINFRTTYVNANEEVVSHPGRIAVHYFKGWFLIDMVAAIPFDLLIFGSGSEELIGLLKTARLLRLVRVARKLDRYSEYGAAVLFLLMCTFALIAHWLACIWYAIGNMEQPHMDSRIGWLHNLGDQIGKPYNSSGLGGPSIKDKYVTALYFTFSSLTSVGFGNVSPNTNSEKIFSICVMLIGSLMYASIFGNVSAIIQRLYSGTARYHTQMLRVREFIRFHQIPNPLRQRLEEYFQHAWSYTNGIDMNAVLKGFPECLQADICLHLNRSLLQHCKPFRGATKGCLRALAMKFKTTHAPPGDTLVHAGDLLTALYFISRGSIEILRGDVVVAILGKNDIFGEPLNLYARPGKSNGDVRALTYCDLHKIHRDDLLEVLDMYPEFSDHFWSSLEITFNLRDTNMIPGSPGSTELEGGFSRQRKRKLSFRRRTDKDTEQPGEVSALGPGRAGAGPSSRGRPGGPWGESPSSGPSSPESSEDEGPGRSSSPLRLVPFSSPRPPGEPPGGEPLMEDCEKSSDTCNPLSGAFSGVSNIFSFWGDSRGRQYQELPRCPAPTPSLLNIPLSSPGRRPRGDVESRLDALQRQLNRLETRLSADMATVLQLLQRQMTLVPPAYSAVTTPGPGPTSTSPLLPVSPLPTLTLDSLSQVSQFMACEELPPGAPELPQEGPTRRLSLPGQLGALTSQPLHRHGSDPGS
Chain of hERG channel (Q12809 whole entry): as above

| Compound | IC50 (H322) | IC50 (H661) | IC50 (H1115) | further results |
| --- | --- | --- | --- | --- |
| O=C(NCc1ccc(-c2nc3ccc([N+](=O)[O-])cc3o2)cc1)c1cccnc1 [A4261] | 0.03 µM | < 0.3 µM | < 0.1 µM |  |
| O=C(NCc1ccc(-c2nc3cc(-c4ccccc4)ccc3o2)cc1)c1cccnc1 [A4262] | 0.03 µM | 30 µM | < 0.1 µM |  |
| CC(C)(C)c1ccc2nc(-c3ccc(CNC(=O)c4cccnc4)cc3)oc2c1 [A4263] | < 0.03 µM | 1 µM | < 0.3 µM |  |
| O=C(NCc1ccc(-c2nc3cc4ccccc4cc3o2)cc1)c1cccnc1 [A4265, N-(4-(naphtho[2,3-d]oxazol-2-yl)benzyl)nicotinamide] | 0.003 µM | < 0.03 µM | 0.01 µM | Human(%) parent compound remaining [1]: 81.11 ± 4.76%; Mouse(%) parent compound remaining [2]: 78.24 ± 6.49%; inhibition at 10 µM (hERG channel): 7.44 ± 3.12%; IC50 (hERG K+ channel): > 100 µM |
| O=C(NCc1ccc(-c2nc3ccc(Cl)cc3o2)cc1)c1cccnc1 [A4266, N-(4-(6-chlorobenzo[d]oxazol-2-yl)benzyl)nicotinamide] | 0.03 µM | 0.1 µM | 0.03 µM | Human(%) parent compound remaining [1]: >99%; Mouse(%) parent compound remaining [2]: 89.3 ± 3.12%; inhibition at 10 µM (hERG channel): < 1%; IC50 (hERG K+ channel): > 100 µM |
| Cc1ccc2oc(-c3ccc(CNC(=O)c4cccnc4)cc3)nc2c1 [A4275] | 0.03 µM | < 0.3 µM | < 0.3 µM |  |
| CCc1ccc2nc(-c3ccc(CNC(=O)c4cccnc4)cc3)oc2c1 [A4302] | 0.1 µM | 0.1 µM | < 0.3 µM |  |
| Cc1ccc2nc(-c3ccc(CNC(=O)c4ccccc4)cc3)oc2c1 [A4303] | 10 µM | 10 µM | 10 µM |  |
| COC(=O)c1ccc(NC(=O)c2cccnc2)cc1 [B1380] | 6.25 µM | 2.5 µM |  | IC50 (H1993): > 12.5 µM; IC50 (H2122): > 12.5 µM; IC50 (HBEC30): > 12.5 µM |
| CC(C)OC(=O)c1ccc(NC(=O)c2cccnc2)cc1 [B1416] | < 1.56 µM |  |  |  |
| CCc1nnc2sc(-c3ccc(CNC(=O)c4cccnc4)cc3)nn12 [B1423] | 0.6 µM | > 1 µM | 1 µM | IC50 (H1299): > 100 µM; IC50 (H1975): > 100 µM; IC50 (H1993): > 100 µM; IC50 (H2030): > 100 µM; IC50 (H2122): > 100 µM; IC50 (HBEC30): > 100 µM |
| Cc1nnc2sc(-c3ccc(CNC(=O)c4cccnc4)cc3)nn12 [B1468] | < 0.024 µM | > 1 µM | 3.16 µM | IC50 (H1299): > 100 µM; IC50 (H1975): > 100 µM; IC50 (H1993): > 100 µM; IC50 (H2030): > 100 µM; IC50 (H2122): > 100 µM; IC50 (HBEC30): > 100 µM; toxicity (liver cell (THLE-2)): little toxicity; toxicity (liver cell (THLE-3)): little toxicity |
| O=C(NCc1ccc(-c2nc3ccccc3s2)cc1)c1cccnc1 [B1469] | 0.06 µM |  |  |  |
| O=C(NCc1ccc(-c2nc3ccccc3o2)cc1)c1cccnc1 [B1470] | 0.06 µM |  |  |  |
| O=C(NCc1ccc(-c2nc3cnccc3o2)cc1)c1cccnc1 [B1471, N-(4-(oxazolo[4,5-c]pyridin-2-yl)benzyl)nicotinamide] | < 0.024 µM | 0.7 µM | > 1 µM | IC50 (H1299): 100 µM; IC50 (H1975): > 100 µM; IC50 (H1993): > 100 µM; IC50 (H2030): > 100 µM; IC50 (H2122): > 100 µM; IC50 (HBEC30): > 100 µM; amount of ATP (H322 cell line): remarkably decreased; amount of NAD (H322 cell line): remarkably decreased; total amount of protein compared to the negative control (H322 cell line): decrease |
| O=C(NCc1ccc(-c2nc3ncccc3o2)cc1)c1cccnc1 [B1472] | 0.3 µM |  |  |  |
| COc1ccc2oc(-c3ccc(CNC(=O)c4cccnc4)cc3)nc2c1 [B1474] | 0.05 µM |  |  |  |
| O=C(Nc1ccc(C(=O)OC2CCCCC2)cc1)c1cccnc1 [B1477] | < 0.024 µM | > 1 µM | > 1 µM | IC50 (H1299): < 100 µM; IC50 (H1975): > 100 µM; IC50 (H1993): < 100 µM; IC50 (H2030): < 100 µM; IC50 (H2122): 31.6 µM; IC50 (HBEC30): > 100 µM; toxicity (liver cell (THLE-2)): little toxicity; toxicity (liver cell (THLE-3)): little toxicity |
| CC(C)c1ccc2oc(-c3ccc(NC(=O)c4cccnc4)cc3)nc2c1 [B1479] | 5 µM |  |  |  |
| O=C(Nc1ccc(C(=O)c2cc3ccccc3o2)cc1)c1cccnc1 [B1484] | 0.05 µM |  |  |  |
| CCc1nnc2sc(-c3ccc(NC(=O)c4cccnc4)cc3)nn12 [B1485] | 0.03 µM |  |  |  |
| O=C(Nc1ccc(-c2nn3cnnc3s2)cc1)c1cccnc1 [B1523] | 1.56 µM |  |  |  |
